Where “and” joins values, the source holds several entries; their conditions need not be identical. Identical values can stand only once. Like-named read-outs stand apart in the source and are kept apart here.
What was measured:
[1] = molecular target: T1, ASBT (Homo sapiens, UniProt Q12908); assay: Transport inhibition and recovery assay (inhibitor washout) in ASBT-HEK293 cells; type: cell-based; conditions: 3 μM inhibitor 5 min; for ASBT inhibition pattern after inhibitor washout and inhibitor-free incubation: recovery time up to 240 min
T1 construct: stably transfected with the full open reading frames of human NTCP, ASBT, SOAT, OATP1B1, OATP1B3, OATP2B1, and murine Asbt (mAsbt); expressed in transfected cells; host or cells: HEK293 (Flp-In), stably transfected, tetracycline-induced
T1 sequence (Q12908 1-348): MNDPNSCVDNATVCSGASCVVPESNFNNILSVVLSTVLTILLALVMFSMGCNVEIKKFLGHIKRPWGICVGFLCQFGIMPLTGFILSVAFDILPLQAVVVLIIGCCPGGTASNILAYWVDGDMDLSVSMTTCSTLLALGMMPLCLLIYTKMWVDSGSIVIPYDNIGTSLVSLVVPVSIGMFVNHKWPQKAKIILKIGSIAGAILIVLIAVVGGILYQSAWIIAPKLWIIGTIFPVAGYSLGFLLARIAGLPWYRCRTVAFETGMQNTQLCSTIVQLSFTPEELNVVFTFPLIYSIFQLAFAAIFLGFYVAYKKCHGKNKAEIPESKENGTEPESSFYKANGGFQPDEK
Experimental: HEK293 cells stably expressing ASBT were seeded onto poly-L-lysine-coated 96-well plates, induced with 1 μg/ml tetracycline, and grown to confluence over 72 h at 37°C. Non-carrier-expressing HEK293 cells were used as control. Then, cells were washed with tempered (37°C) PBS and equilibrated for 5 min with STB. […] After inhibitor preincubation, cells were washed with tempered (37°C) PBS and further incubated in inhibitor-free DMEM (Thermo Fisher Scientific) for 30, 60, 120, or 240 min at 37°C. […] Finally, cell associated radioactivity was determined using the MicroBeta2 liquid scintillation counter (Revvity). For each inhibitor, the mean values from noncarrier-expressing HEK293 cells were set to 0% and transport measurements in the absence of inhibitor (solvent control) were set to 100%.
In the second setup, the inhibitor was thoroughly washed out after the preincubation phase and cells were placed on inhibitor-free medium for different time intervals of 0–240 min (indicated by “recovery time” in Fig. 7A).

[2] = molecular target: T1, ASBT; assay: [3H]TC transport and inhibition assay in ASBT-HEK293 cells; type: cell-based; conditions: for IC50: 1 μM [3H]TC, 10 min, ASBT-HEK293, two independent experiments
Text: Human embryonic kidney HEK293 cells, stably transfected with the full open reading frames of human NTCP, ASBT, SOAT, OATP1B1, OATP1B3, OATP2B1, and murine Asbt (mAsbt) were used as reported ([18], [20], [21], [22], [23]). The NTCP, ASBT, and mAsbt constructs were C-terminally tagged with the FLAG epitope, and the SOAT construct was C-terminally tagged with green fluorescent protein. Non-transfected Flp-In HEK293 cells (Thermo Fisher Scientific) served as the control. All cell lines were maintained at 37°C, 5% CO2 and 95% humidity in DMEM/F-12 medium (Thermo Fisher Scientific) supplemented with 10% fetal calf serum (Sigma-Aldrich), 4 mM L-glutamine (PAA) and penicillin/streptomycin (PAA). Expression of the respective carrier protein was induced by tetracycline treatment at 1 μg/ml (Carl Roth GmbH + Co. KG).
Cells were seeded onto poly-L-lysine-coated 96-well plates, induced with 1 μg/ml tetracycline, and grown to confluence over 72 h at 37°C. Then, cells were washed with tempered (37°C) phosphate-buffered saline (PBS, containing 137.0 mM NaCl, 2.7 mM KCl, 1.5 mM KH2PO4, and 7.3 mM Na2HPO4, at pH 7.4) and preincubated with 80 μl sodium transport buffer (STB, containing 142.9 mM NaCl, 4.7 mM KCl, 1.2 mM MgSO4, 1.2 mM KH2PO4, 1.8 mM CaCl2, and 20.0 mM HEPES, at pH 7.4) for 5 min at 37°C. For inhibition studies, the medium was replaced by 80 μl STB containing the respective inhibitor or solvent alone and cells were further incubated for 5 min at 37°C. Transport experiments were started by adding 20 μl of a 5-fold concentrated substrate solution (solved in STB). For transport experiments under sodium-free conditions the same buffer composition was used as for STB, but sodium chloride was substituted with equimolar concentrations of choline chloride as previously reported ([20], [24]). Transport experiments were stopped by washing twice with ice-cold PBS and the plates were kept cool on ice until adding the lysis buffer [1% sodium dodecyl sulfate (SDS) and 1 N NaOH]. Then, the cell-associated radioactivity of the respective tritium-labeled substrate or ligand was quantified by liquid scintillation counting using MicroScint-20 scintillation cocktail (Revvity) in a Packard Microplate Scintillation Counter TopCount NXT (Packard Instrument Company). For IC50 transport inhibition measurements, the mean uptake values measured in non-carrier-expressing HEK293 control cells were defined as 0% uptake control and were subtracted from all other values. Values from cells without inhibitor and solvent alone were set to 100%. Finally, all net transport data were expressed as uptake or binding as % of control. All transport or inhibition graphs were generated with GraphPad Prism 6 (GraphPad). Determination of half maximal inhibitory concentrations (IC50) was done by nonlinear regression analysis using the equation log (inhibitor) versus response—variable slope settings. All data points of the IC50 curves represent means ± SD of quadruplicate determinations. For Km measurements, BS uptake in the absence of sodium was regarded as carrier-independent unspecific uptake and was subtracted from the transport rates in the presence of sodium to obtain carrier-specific uptake rates (indicated as dashed lines). From the specific uptake rates, Michaelis Menten Km values were calculated by non-linear regression analysis.

[3] = system: OATP1B1; conditions: cited from earlier work; for IC50: read-out: IC50 OATP1B1 inhibition
[4] = system: ASBT; conditions: cited from earlier work; for IC50: read-out: IC50 ASBT inhibition

## CCCCC1(CCCC)CS(=O)(=O)c2ccc(N(C)C)cc2[C@@H](c2ccc(OCCCC[N+]34CCN(CC3)CC4)cc2)[C@H]1O [SC-435]
[1]
  ASBT inhibition pattern after inhibitor washout and inhibitor-free incubation: intermediate inhibition pattern
[2]
  IC50: 200 nM and 230 nM

## CCCCC1(CCCC)CN(c2ccccc2)c2cc(SC)c(OCC(=O)N[C@@H](C(=O)NCC(=O)O)c3ccccc3)cc2S(=O)(=O)C1 [elobixibat]
[3]; in vitro studies, ref PMDA Goofice Report on the Deliberation Results
  IC50: 258 nM
[4]; ref PMDA Goofice Report on the Deliberation Results
  IC50: 0.53 nM
[4]; reported by the PMDA, ref PMDA
  IC50 ratio for ASBT versus NTCP inhibition: 0.0022
[1]
  ASBT inhibition pattern after inhibitor washout and inhibitor-free incubation: intermediate inhibition pattern
[2]
  IC50: 110 nM and 230 nM
[2]; measured in this study
  IC50 ratio for ASBT versus NTCP inhibition: 0.002-0.006

## CCCC[C@]1(CC)CS(=O)(=O)c2cc(CNC(CC(=O)O)CC(=O)O)c(OC)cc2[C@@H](c2ccccc2)N1 [linerixibat]
[3]
  Substrate of OATP1B1: is a substrate
[3]; ref 65 Zamek-Gliszczynski et al. (2021)
  IC50: 2690 nM
[1]; 0 min recovery
  ASBT transport activity recovered directly after inhibitor washout: about 37%
[1]; 30 min recovery
  ASBT recovery after washout and 30 min in inhibitor-free medium: mostly recovered ASBT
[1]
  ASBT inhibition pattern after inhibitor washout and inhibitor-free incubation: quick and full recovery
[2]
  IC50: 180 nM and 250 nM
[2]; 500 μM [3H]TC
  Transport inhibition at highest substrate concentration: full transport inhibition
[2]; [3H]TC 0.3-500 μM, linear regression
  Slope of IC50 values versus TC substrate concentration: 4.0 × 10^−4

## CCCCC1(CCCC)CS(=O)(=O)c2ccc(N(C)C)cc2[C@@H](c2ccc(OCc3ccc(C[N+]45CCN(CC4)CC5)cc3)cc2)[C@H]1O [maralixibat]
[3]; in vitro, ref FDA NDA 214662 Livmarli
  OATP1B1 inhibition (in words): In vitro, maralixibat did not inhibit the transporters OATP1B1 and OATP1B3.
[4]; ASBT expressed in baby hamster kidney H-14 cell line, ref FDA NDA 214662 Livmarli
  IC50: 0.28 nM
[1]
  ASBT inhibition pattern after inhibitor washout and inhibitor-free incubation: retained full ASBT uptake inhibition

## CCCCC1(CCCC)CN(c2ccccc2)c2cc(SC)c(OCC(=O)N[C@@H](C(=O)N[C@@H](CC)C(=O)O)c3ccc(O)cc3)cc2S(=O)(=O)N1 [odevixibat]
[3]; in vitro studies, ref FDA NDA 215498 BYLVAY
  IC50: 308 nM
[3]; ref EMA EPAR Product Information Bylvay
  OATP1B1 inhibition (in words): Odevixibat does not inhibit OATP1B1 and OATP1B3.
[4]; ASBT-expressing HEK293 cells, ref EMA EPAR Risk management plan for odevixibat
  IC50: 0.13 nM
[1]
  ASBT inhibition pattern after inhibitor washout and inhibitor-free incubation: retained full ASBT uptake inhibition
[2]
  IC50: 680 nM and 990 nM

From publication PMC12596218 (Journal of Lipid Research, 2025)
